Laboratory results taken from US11185812B2, “Regenerative recovery of sulfur dioxide from effluent gases” (MECS, INC., priority 2010, dated 2021).
Where two headings read alike, the source gives them in different places.

Experiments:
[1] = Equilibrium loading data for metal salts, batch absorber experiments; type: physicochemical; settings: atmospheric pressure; for SO2, ppm: equilibrium SO2 concentration; for Loading Capacity (fraction): equilibrium, aqueous absorption solution
Method: The following experiments were conducted in a batch absorber wherein a sulfur dioxide-containing gas was fed via a sparger below the liquid level in a vessel containing an aqueous absorption solution comprising various polyprotic carboxylic acid salts and the composition of the exhaust gas was monitored.
The sulfur dioxide-containing inlet gas 101 to be treated comprised nitrogen saturated with water vapor and a controlled concentration of sulfur dioxide. Temperatures (T) and pressure (P) were monitored during the experiment and gas samples (S) were taken at different times during the experiment. T1 and P1 are temperature and pressure sensors of inlet gas 101. S1 is a sampling point for inlet gas 101. T2 is a temperature sensor of the liquid in the vessel. T3 is a temperature sensor of exhaust gas 102.
In these experiments and other experiments reported in the Examples below, the gas concentrations were measured by gas chromatography and liquid concentrations were calculated by material balance.
All experiments were performed at atmospheric pressure. These experiments approach equilibrium concentrations and, in some cases, equilibrium data (denoted Eq. in the legend) are also included in the graphed results. For the equilibrium data, the compositions of the gas and liquid were diluted with excess caustic to maintain the sulfur dioxide in solution.
Total sulfur content was determined using ASTM Standard D1552, “Standard Test Method for Sulfur in Petroleum Products (High-Temperature Method”, DOI: 10.1520/D1552-08, available from ASTM International, West Conshohocken, Pa., www.astm.org.

[2] = cited from earlier work

| Structure (SMILES) | SO2, ppm ([1]; 50 °C) [ppm] | SO2, ppm ([1]; 100 °C) [ppm] | Loading Capacity (fraction) ([1]; 50 °C) | Loading Capacity (fraction) ([1]; 100 °C) | pKa1 ([2]; 25° C.) | pKa2 ([2]; 25° C.) | pKa1 ([2]; temperature not given) |
| --- | --- | --- | --- | --- | --- | --- | --- |
| O=C([O-])CC(O)(CC(=O)[O-])C(=O)[O-].[K+].[K+].[K+] [K Cit, potassium citrate] | 105.94 | 1162.54 | 0.2754 | 0.2668 | – | – | – |
| O=C(O)CCCC(=O)O [L-Glutaric Acid] | – | – | – | – | 4.31 | 5.41 | – |
| CC(=O)CCC(=O)O [Levulinic Acid] | – | – | – | – | 4.59 | – | – |
| O=C([O-])CC(O)C(=O)[O-].[Na+].[Na+] (stereo not shown) [Na Mal, sodium malate] | 406.6 | 2169.06 | 0.1694 | 0.1416 | – | – | – |
| O=C([O-])c1ccccc1C(=O)[O-].[Na+].[Na+] [Na Pha, sodium phthalate] | 1115.92 | 11303.83 | 0.6530 | 0.7250 | – | – | – |
| O=C([O-])CCC(=O)[O-].[Na+].[Na+] [Na Suc, sodium succinate] | 137.54 | 1387.3 | 0.1045 | 0.2053 | – | – | – |
| O=C(O)c1cccnc1 [Nicotinic acid] | – | – | – | – | – | – | 4.75 |
| O=C(O)c1ccccc1C(=O)O [o-Phthalic Acid] | – | – | – | – | 2.89 | 5.51 | – |
